Our source for the IC50 values is patent US11185531B2, “Arginine methyltransferase inhibitors and uses thereof” (Epizyme, Inc., priority 2013, dated 2021).

Experiment [1] deals with T1, human PRMT1 (Homo sapiens, UniProt Q99873).
T1 construct: GST-tagged PRMT1; made in house; host or cells: High Five insect cells (baculovirus)
Nature of the experiment: PRMT1 Biochemical Assay (3H-SAM Flashplate, peptide substrate). The note with it: 30 min preincubation. An excerpt:
Peptide representative of human histone H4 residues 36-50 was synthesized with an N-terminal linker-affinity tag motif and a C-terminal amide cap by 21st Century Biochemicals. The peptide was purified by high-performance liquid chromatography (HPLC) to greater than 95% purity and confirmed by liquid chromatography mass spectrometry (LC-MS). The sequence was Biot-Ahx-[…]-amide (SEQ ID NO.: 1).
Full-length human PRMT1 isoform 1 (NM_001536.5) transcript clone was amplified from an HEK 293 cDNA library, incorporating flanking 5′ sequence encoding a FLAG tag ([…]) (SEQ ID NO:2) fused directly to Met 1 of PRMT1. The amplified gene was subcloned into pFastBacI (Life Technologies) modified to encode an N-terminal GST tag and a TEV cleavage sequence
GST-tagged PRMT1 was eluted with 50 mM Tris, 2 mM glutathione, pH 7.8, dialysed in buffer A and concentrated to 1 mg/mL. The purity of recovered protein was 73%. Reference: Wasilko, D. J. and S. E. Lee: “TIPS: titerless infected-cells preservation and scale-up” Bioprocess J., 5 (2006), pp. 29-32.
General Procedure for PRMT1 Enzyme Assays on Peptide Substrates.
The assays were all performed in a buffer consisting of 20 mM Bicine (pH=7.6), 1 mM TCEP, 0.005% BSG, and 0.002% Tween 20, prepared on the day of use. Compounds in 100% DMSO (1 ul) were spotted into a polypropylene 384-well V-bottom plates (Greiner) using a Platemate Plus outfitted with a 384-channel head (Thermo Scientific). DMSO (1 ul) was added to Columns 11, 12, 23, 24, rows A-H for the maximum signal control and 1 ul of SAH, a known product and inhibitor of PRMT1, was added to columns 11, 12, 23, 24, rows I-P for the minimum signal control. A cocktail (40 ul) containing the PRMT1 enzyme was added by Multidrop Combi (Thermo-Fisher). The compounds were allowed to incubate with PRMT1 for 30 min at room temperature, then a cocktail (10 ul) containing SAM and peptide was added to initiate the reaction (final volume=51 ul). The final concentrations of the components were as follows: PRMT1 was 0.5 nM, ^3H-SAM was 200 nM, non-radiolabeled SAM was 1.5 uM, peptide was 20 nM, SAH in the minimum signal control wells was 1 mM, and the DMSO concentration was 2%. The assays were stopped by the addition of non-radiolabeled SAM (10 ul) to a final concentration of 300 uM, which dilutes the ^3H-SAM to a level where its incorporation into the peptide substrate is no longer detectable. 50 ul of the reaction in the 384-well polypropylene plate was then transferred to a 384-well Flashplate and the biotinylated peptides were allowed to bind to the streptavidin surface for at least 1 hour before being washed once with 0.1% Tween20 in a Biotek ELx405 plate washer. The plates were then read in a PerkinElmer TopCount plate reader to measure the quantity of ^3H-labeled peptide bound to the Flashplate surface, measured as disintegrations per minute (dpm) or alternatively, referred to as counts per minute (cpm).
(§1) Where dpm=disintegrations per minute, cmpd=signal in assay well, and min and max are the respective minimum and maximum signal controls.
(§2) Where top and bottom are the normally allowed to float, but may be fixed at 100 or 0 respectively in a 3-parameter fit. The Hill Coefficient normally allowed to float but may also be fixed at 1 in a 3-parameter fit. Y is the % inhibition and X is the compound concentration.

Experiment [2] concerns the target T2, human PRMT6 (Homo sapiens, UniProt Q96LA8).
T2 construct: Flag-PRMT6-His was eluted with 200 ug/ml FLAG peptide in the same buffer; made in house; host or cells: HEK 293F cells (BacMam baculovirus, pFastBacMam)
Nature of the experiment: PRMT6 Biochemical Assay (3H-SAM Flashplate, peptide substrate). The note with it: 30 min preincubation.
Source text: Peptide representative of human histone H4 residues 36-50 was synthesized with an N-terminal linker-affinity tag motif and a C-terminal amide cap by 21st Century Biochemicals. The peptide was purified by high-performance liquid chromatography (HPLC) to greater than 95% purity and confirmed by liquid chromatography mass spectrometry (LC-MS). The sequence was Biot-Ahx-[…]-amide and contained a monomethylated lysine at position 44 (SEQ ID NO:5).
Full-length human PRMT6 (NM_018137.2) transcript clone was amplified from an HEK 293 cDNA library, incorporating a flanking 5′ sequence encoding a FLAG tag ([…]) (SEQ ID NO:6) fused directly to Ser 2 of PRMT6 and a 3′ sequence encoding a hexa His sequence (HHHHHH) fused directly to Asp 375. The amplified gene was subcloned into pFastBacMam (Viva Biotech).
Column was washed with 20 mM imidazole in the same buffer and Flag-PRMT6-His was eluted with 150 mM imidazole. Pooled fractions were dialysed against buffer Ni-A and further purified by anti-flag M2 affinity chromatography. Flag-PRMT6-His was eluted with 200 ug/ml FLAG peptide in the same buffer. Pooled fractions were dialysed in 20 mM Tris, 150 mM NaCl, 10% glycerol and 5 mM 3-mercaptoethanol, pH 7.8. The purity of recovered protein was 95%.
General Procedure for PRMT6 Enzyme Assays on Peptide Substrates.
The assays were all performed in a buffer consisting of 20 mM Bicine (pH=7.6), 1 mM TCEP, 0.005% BSG, and 0.002% Tween 20, prepared on the day of use. Compounds in 100% DMSO (1 ul) were spotted into a polypropylene 384-well V-bottom plates (Greiner) using a Platemate Plus outfitted with a 384-channel head (Thermo Scientific). DMSO (1 ul) was added to Columns 11, 12, 23, 24, rows A-H for the maximum signal control and 1 ul of SAH, a known product and inhibitor of PRMT6, was added to columns 11, 12, 23, 24, rows I-P for the minimum signal control. A cocktail (40 ul) containing the PRMT6 enzyme was added by Multidrop Combi (Thermo-Fisher). The compounds were allowed to incubate with PRMT6 for 30 min at room temperature, then a cocktail (10 ul) containing SAM and peptide was added to initiate the reaction (final volume=51 ul). The final concentrations of the components were as follows: PRMT6 was 1 nM, ^3H-SAM was 200 nM, non-radiolabeled SAM was 250 nM, peptide was 75 nM, SAH in the minimum signal control wells was 1 mM, and the DMSO concentration was 2%. The assays were stopped by the addition of non-radiolabeled SAM (10 ul) to a final concentration of 400 uM, which dilutes the ^3H-SAM to a level where its incorporation into the peptide substrate is no longer detectable. 50 ul of the reaction in the 384-well polypropylene plate was then transferred to a 384-well Flashplate and the biotinylated peptides were allowed to bind to the streptavidin surface for at least 1 hour before being washed once with 0.1% Tween20 in a Biotek ELx405 plate washer. The plates were then read in a PerkinElmer TopCount plate reader to measure the quantity of ^3H-labeled peptide bound to the Flashplate surface, measured as disintegrations per minute (dpm) or alternatively, referred to as counts per minute (cpm).
as §1, §2

T1 sequence (Q99873 with tags, fused parts or gaps): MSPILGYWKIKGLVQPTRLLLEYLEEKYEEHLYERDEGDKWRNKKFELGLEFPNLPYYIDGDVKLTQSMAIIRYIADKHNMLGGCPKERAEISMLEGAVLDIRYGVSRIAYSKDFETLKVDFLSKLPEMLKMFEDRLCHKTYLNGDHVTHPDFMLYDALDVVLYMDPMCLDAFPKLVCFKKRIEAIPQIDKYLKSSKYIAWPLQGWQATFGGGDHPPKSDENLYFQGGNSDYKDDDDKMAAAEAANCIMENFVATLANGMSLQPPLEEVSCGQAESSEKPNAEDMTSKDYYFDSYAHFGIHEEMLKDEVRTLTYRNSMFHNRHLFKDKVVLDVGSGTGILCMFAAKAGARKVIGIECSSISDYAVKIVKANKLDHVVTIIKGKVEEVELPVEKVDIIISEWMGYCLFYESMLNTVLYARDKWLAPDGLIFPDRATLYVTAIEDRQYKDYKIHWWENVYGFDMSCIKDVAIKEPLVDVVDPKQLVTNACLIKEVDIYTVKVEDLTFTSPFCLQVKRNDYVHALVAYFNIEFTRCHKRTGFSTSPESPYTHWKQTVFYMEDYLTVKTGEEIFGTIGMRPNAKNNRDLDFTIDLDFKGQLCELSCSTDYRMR
T2 sequence (Q96LA8 with tags, fused parts or gaps): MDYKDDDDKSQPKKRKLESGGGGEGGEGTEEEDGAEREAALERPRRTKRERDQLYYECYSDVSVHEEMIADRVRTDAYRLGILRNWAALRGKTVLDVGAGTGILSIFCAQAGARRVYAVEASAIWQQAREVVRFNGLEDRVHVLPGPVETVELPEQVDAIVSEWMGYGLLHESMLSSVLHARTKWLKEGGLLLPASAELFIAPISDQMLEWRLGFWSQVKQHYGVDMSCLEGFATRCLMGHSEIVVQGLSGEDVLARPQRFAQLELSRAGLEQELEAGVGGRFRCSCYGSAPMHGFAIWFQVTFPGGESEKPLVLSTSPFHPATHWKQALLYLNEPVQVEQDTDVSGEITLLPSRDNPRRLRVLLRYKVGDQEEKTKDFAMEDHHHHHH

For `CNCCN(C)Cc1c[nH]nc1C#Cc1cccc(OC)c1` [Compound 1], the IC50 in experiment [1] and in experiment [2] was less than 0.1 µM in each case.
As to `CNCCN(C)Cc1c[nH]nc1C#Cc1ccc(C(C)(C)C)cc1` [Compound 2], the IC50 in experiment [1] and in experiment [2] was less than 0.1 µM each time.
Consider `CNCCN(C)Cc1c[nH]nc1C#Cc1ccccc1` [Compound 3], for which the IC50 in experiment [2] is less than 0.1 µM.
With `CNCCN(C)Cc1c[nH]nc1C#Cc1ccc(F)cc1` [Compound 4], the IC50 in experiment [1] and in experiment [2] was less than 0.1 µM throughout.
In the case of `CNCCN(C)Cc1c[nH]nc1/C=C/c1ccc(-c2ccccc2)cc1` [Compound 5], the concentration for half-maximal inhibition (IC50) in experiment [1] and in experiment [2] was less than 0.1 µM each time.
With `CNCCN(C)Cc1c[nH]nc1/C=C/c1ccc(C(F)(F)F)cc1` [Compound 6], the IC50 in experiment [1] and in experiment [2] was less than 0.1 µM each time.
For `CNCCN(C)Cc1c[nH]nc1/C=C/c1ccc(OC)cc1` [Compound 7], the IC50 in experiment [1] and in experiment [2] was less than 0.1 µM in each case.
Consider `Cc1ccc(/C=C/c2n[nH]cc2CN(C)CCN)cc1` [Compound 8], for which the IC50 in experiment [1] and in experiment [2] was less than 0.1 µM each time.
As to `CN(CCN)Cc1c[nH]nc1C1=CCOCC1` [Compound 10], the IC50 in experiment [1] and in experiment [2] was 0.101 to 1 µM in each case.
For `COc1cc(/C=C/c2n[nH]cc2CN(C)CCN)cc(OC)c1` [Compound 11], the IC50 in experiment [1] and in experiment [2] was less than 0.1 µM throughout.
With `CN(CCN)Cc1c[nH]nc1/C=C/c1ccc(F)cc1F` [Compound 13], the IC50 in experiment [1] and in experiment [2] was less than 0.1 µM in each case.
For the molecule `CN(CCN)Cc1c[nH]nc1/C=C/c1cc(C(F)(F)F)cc(C(F)(F)F)c1` [Compound 14], the IC50 in experiment [1] is less than 0.1 µM; in experiment [2], 0.101 to 1 µM.
On the same counts, the results for `CN(CCN)Cc1c[nH]nc1/C=C/c1cc(F)cc(F)c1` [Compound 15] are less than 0.1 µM and less than 0.1 µM.
`CN(CCN)Cc1c[nH]nc1/C=C/c1cccc(C(F)(F)F)c1` [Compound 16]: the results for the 50% inhibitory concentration (IC50) in experiment [1] and in experiment [2] were less than 0.1 µM and 0.101 to 1 µM, respectively.
Regarding `COc1cccc(/C=C/c2n[nH]cc2CN(C)CCN)c1` [Compound 17], the IC50 in experiment [1] and in experiment [2] was less than 0.1 µM each time.
As for `CN(CCN)Cc1c[nH]nc1/C=C/c1ccc(C(F)(F)F)cc1` [Compound 18], the IC50 in experiment [1] and in experiment [2] was less than 0.1 µM throughout.
In the case of `COC/C=C/c1n[nH]cc1CN(C)CCN` [Compound 19], the IC50 in experiment [1] and in experiment [2] was 0.101 to 1 µM each time.
With `CN(CCN)Cc1c[nH]nc1/C=C/c1cccc(F)c1` [Compound 20], the IC50 in experiment [1] and in experiment [2] was less than 0.1 µM each time.
As to `CC(C)c1n[nH]cc1CN(C)CCN` [Compound 21], the IC50 in experiment [1] was 1.01 to 3 µM; in experiment [2], 0.101 to 1 µM.
On to `CN(CCN)Cc1c[nH]nc1C1CCCCC1` [Compound 22], for which the IC50 in experiment [1] and in experiment [2] was less than 0.1 µM each time.
For `CN(CCN)Cc1c[nH]nc1CCc1ccc(F)cc1` [Compound 23, N^1-((3-(4-fluorophenethyl)-1H-pyrazol-4-yl)methyl)-N^1-methylethane-1,2-diamine], the IC50 in experiment [1] and in experiment [2] was less than 0.1 µM in each case.
In the case of `CN(CCN)Cc1c[nH]nc1/C=C/Cc1ccccc1` [Compound 24], the IC50 was less than 0.1 µM in experiment [1] and 0.101 to 1 µM in experiment [2].
On the same counts, the results for `CN(CCN)Cc1c[nH]nc1C1=CCCC1` [Compound 25] are 0.101 to 1 µM and 0.101 to 1 µM.
`CN(CCN)Cc1c[nH]nc1C1CCC1` [Compound 26] came in with an IC50 in experiment [2] of 0.101 to 1 µM.
For `CC(C)Cc1n[nH]cc1CN(C)CCN` [Compound 28, N^1-((3-iso-butyl-1H-pyrazol-4-yl)methyl)-N^1-methylethane-1,2-diamine], the IC50 in experiment [1] was 0.101 to 1 µM; in experiment [2] it was less than 0.1 µM.
Regarding `CCCc1n[nH]cc1CN(C)CCN` [Compound 29], the IC50 in experiment [1] and in experiment [2] was 0.101 to 1 µM throughout.
In experiment [2], `Cc1n[nH]cc1CN(C)CCN` [Compound 30] yielded a concentration for half-maximal inhibition (IC50) of 0.101 to 1 µM.
The molecule `CN(CCN)Cc1c[nH]nc1C1CCCC1` [Compound 31] returned a concentration for half-maximal inhibition (IC50) in experiment [2] of 3.01 to 10 µM.
In the case of `CNCCN(C)Cc1c[nH]nc1C1CCN(C(=O)Cc2ccccc2)CC1` [Compound 32], the results for the IC50 in experiment [1] and in experiment [2] were 0.101 to 1 µM and less than 0.1 µM, respectively.
In the case of `CN(CCN)Cc1n[nH]cc1C1CCCCC1` [Compound 33], the IC50 in experiment [1] and in experiment [2] was less than 0.1 µM throughout.
Regarding `CNCCN(C)Cc1c[nH]nc1C1CCN(C(=O)C(C)C)CC1` [Compound 34], the IC50 in experiment [1] and in experiment [2] was less than 0.1 µM in each case.
On to `CC1CCC(c2c[nH]nc2CN(C)CCN)CC1` (centres unmarked) [Compound 35], for which the 50% inhibitory concentration (IC50) in experiment [1] and in experiment [2] was less than 0.1 µM throughout.
As for `CN(CCN)Cc1n[nH]cc1C1CCC(C)(C)CC1` [Compound 36], the IC50 in experiment [1] and in experiment [2] was less than 0.1 µM in each case.
As for `CC1CCC(c2n[nH]cc2CN(C)CCN)CC1` (centres unmarked) [Compound 37, N^1-methyl-N^1-((3-(4-methylcyclohexyl)-1H-pyrazol-4-yl)methyl)ethane-1,2-diamine], the IC50 in experiment [1] and in experiment [2] was less than 0.1 µM throughout.
Take `CNCCN(C)Cc1c[nH]nc1C1CCN(CC(C)C)CC1` [Compound 39, N^1-((3-(1-isobutylpiperidin-4-yl)-1H-pyrazol-4-yl)methyl)-N^1,N^2-dimethylethane-1,2-diamine]: in experiment [2], the 50% inhibitory concentration (IC50) was less than 0.1 µM.
